{"source": "ChEMBL document CHEMBL4145533", "about": "“6,7-Dimorpholinoalkoxy quinazoline derivatives as potent EGFR inhibitors with enhanced antiproliferative activities against tumor cells” (Eur J Med Chem, 2018)", "key": {"A549 [1]": {"system": "A549", "assay": "Cell cycle arrest in human A549 cells assessed as accumulation at S phase at 0.5 uM after 48 hrs by propidium iodide satining based FACS analysis (reference value: 34.45%)", "type": "functional"}, "A549 [2]": {"system": "A549", "assay": "Cell cycle arrest in human A549 cells assessed as accumulation at G0/G1 phase at 2 uM after 48 hrs by propidium iodide satining based FACS analysis (reference value: 48.87%)", "type": "functional"}, "[3]": {"system": "Epidermal growth factor receptor (Homo sapiens), P00533 [L858R,T790M]", "sequence (P00533 whole entry T790M/L858R, looked up)": "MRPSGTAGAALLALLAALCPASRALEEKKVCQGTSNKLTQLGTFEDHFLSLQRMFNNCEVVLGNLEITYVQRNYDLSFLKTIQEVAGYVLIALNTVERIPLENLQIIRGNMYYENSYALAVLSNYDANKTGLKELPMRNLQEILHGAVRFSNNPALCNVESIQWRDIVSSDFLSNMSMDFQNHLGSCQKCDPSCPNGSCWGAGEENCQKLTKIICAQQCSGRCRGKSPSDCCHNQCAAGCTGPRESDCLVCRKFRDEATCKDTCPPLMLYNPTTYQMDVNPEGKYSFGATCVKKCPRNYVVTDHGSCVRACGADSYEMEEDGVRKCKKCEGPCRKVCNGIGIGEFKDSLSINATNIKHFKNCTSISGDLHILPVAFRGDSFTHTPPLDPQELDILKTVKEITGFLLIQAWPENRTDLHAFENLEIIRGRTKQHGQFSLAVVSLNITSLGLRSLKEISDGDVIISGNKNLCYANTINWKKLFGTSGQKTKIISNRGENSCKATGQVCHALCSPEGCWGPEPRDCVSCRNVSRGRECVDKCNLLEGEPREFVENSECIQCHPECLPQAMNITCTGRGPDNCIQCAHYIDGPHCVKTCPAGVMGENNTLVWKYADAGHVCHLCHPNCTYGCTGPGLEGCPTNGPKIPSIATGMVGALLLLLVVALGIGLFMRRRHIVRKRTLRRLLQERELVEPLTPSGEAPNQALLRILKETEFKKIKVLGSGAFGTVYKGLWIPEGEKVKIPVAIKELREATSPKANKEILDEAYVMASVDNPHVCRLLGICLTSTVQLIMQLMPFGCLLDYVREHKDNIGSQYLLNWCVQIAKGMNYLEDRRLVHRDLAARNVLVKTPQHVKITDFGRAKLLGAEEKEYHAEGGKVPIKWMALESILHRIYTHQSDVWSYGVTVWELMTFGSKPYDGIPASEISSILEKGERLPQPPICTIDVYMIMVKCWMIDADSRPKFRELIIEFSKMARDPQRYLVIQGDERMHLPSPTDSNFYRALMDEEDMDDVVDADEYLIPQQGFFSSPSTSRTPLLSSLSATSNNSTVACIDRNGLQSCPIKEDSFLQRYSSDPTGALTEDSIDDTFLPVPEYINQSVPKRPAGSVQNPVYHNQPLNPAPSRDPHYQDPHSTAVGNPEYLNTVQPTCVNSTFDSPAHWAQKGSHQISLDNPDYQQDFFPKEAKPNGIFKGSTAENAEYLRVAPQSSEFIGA", "assay": "Inhibition of EGF-induced EGFR L858R/T790M double mutant phosphorylation at Y1068 residue in human NCI-H1975 cells preincubated for 2 hrs followed by EGF stimulation measured after 10 mins by Western blot analysis", "type": "cell-based"}, "[4]": {"system": "Epidermal growth factor receptor (Homo sapiens), P00533 [L858R,T790M]", "assay": "Inhibition of EGF-induced EGFR L858R/T790M double mutant activation in human NCI-H1975 cells assessed as reduction in Akt phosphorylation at S473 residue at 5 uM preincubated for 2 hrs followed by EGF stimulation measured after 10 mins by Western blot analysis", "type": "cell-based"}, "A549 [5]": {"system": "A549", "assay": "Cell cycle arrest in human A549 cells assessed as accumulation at G2/M phase at 2 uM after 48 hrs by propidium iodide satining based FACS analysis (reference value: 16.09%)", "type": "functional"}, "A549 [6]": {"system": "A549", "assay": "Induction of apoptosis in human A549 cells assessed as late apoptotic cells at 1 uM after 48 hrs by Annexin V-FITC/propidium iodide satining based FACS analysis (reference value: 1.21%)", "type": "functional"}, "[7]": {"biological_target": "T1, Epidermal growth factor receptor (Homo sapiens, UniProt P00533)", "T1 sequence (P00533 whole entry)": "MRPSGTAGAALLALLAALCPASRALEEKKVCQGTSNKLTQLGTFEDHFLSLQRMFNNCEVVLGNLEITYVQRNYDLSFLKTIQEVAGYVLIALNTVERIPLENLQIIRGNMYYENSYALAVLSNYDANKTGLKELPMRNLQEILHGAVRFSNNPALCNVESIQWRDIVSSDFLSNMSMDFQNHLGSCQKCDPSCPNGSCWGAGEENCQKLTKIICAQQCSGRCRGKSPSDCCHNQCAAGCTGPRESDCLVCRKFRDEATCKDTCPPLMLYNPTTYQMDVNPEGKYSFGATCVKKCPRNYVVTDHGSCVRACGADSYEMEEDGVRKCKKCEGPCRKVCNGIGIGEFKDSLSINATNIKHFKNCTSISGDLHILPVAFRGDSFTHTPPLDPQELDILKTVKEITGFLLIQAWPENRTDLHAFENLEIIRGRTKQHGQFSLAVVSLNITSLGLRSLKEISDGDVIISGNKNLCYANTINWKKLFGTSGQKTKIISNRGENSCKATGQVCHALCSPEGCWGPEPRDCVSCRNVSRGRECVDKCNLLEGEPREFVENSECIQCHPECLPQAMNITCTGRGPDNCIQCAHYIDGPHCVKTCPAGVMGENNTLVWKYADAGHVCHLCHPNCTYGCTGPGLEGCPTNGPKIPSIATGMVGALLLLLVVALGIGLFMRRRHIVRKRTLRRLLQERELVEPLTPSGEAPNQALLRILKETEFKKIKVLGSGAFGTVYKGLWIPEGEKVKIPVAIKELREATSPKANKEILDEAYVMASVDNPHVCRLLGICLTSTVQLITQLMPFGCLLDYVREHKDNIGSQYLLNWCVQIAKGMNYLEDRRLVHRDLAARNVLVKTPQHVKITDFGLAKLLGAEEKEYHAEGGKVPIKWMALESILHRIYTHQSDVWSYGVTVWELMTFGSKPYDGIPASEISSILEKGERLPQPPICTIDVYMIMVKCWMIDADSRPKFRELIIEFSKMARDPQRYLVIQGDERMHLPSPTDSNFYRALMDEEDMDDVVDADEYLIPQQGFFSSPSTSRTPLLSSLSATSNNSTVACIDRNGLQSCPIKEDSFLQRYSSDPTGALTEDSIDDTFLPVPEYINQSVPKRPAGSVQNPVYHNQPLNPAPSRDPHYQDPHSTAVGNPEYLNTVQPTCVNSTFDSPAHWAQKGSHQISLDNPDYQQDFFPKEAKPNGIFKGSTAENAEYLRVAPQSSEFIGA", "assay": "Inhibition of EGF-induced EGFR activation in human A549 cells assessed as reduction in Akt phosphorylation at S473 residue at 0.2 uM preincubated for 2 hrs followed by EGF stimulation measured after 10 mins by Western blot analysis", "type": "cell-based"}, "A549 [8]": {"system": "A549", "assay": "Cell cycle arrest in human A549 cells assessed as accumulation at G2/M phase at 5 uM after 48 hrs by propidium iodide satining based FACS analysis (reference value: 16.09%)", "type": "functional"}, "A549 [9]": {"system": "A549", "assay": "Effect on total Akt protein expression in human A549 cells at 0.2 to 5 uM after 2 hrs by Western blot analysis", "type": "ADME, cell-based", "details": "a549, 2 h"}, "[10]": {"biological_target": "T1, Epidermal growth factor receptor", "type": "cell-based, HEK293", "description": "Inhibition of recombinant human N-terminal His-tagged EGFR (1 to 645 residues) expressed in HEK293 cells by ELISA"}, "[11]": {"biological_target": "T1, Epidermal growth factor receptor", "assay": "Inhibition of EGF-induced EGFR activation in human A549 cells assessed as reduction in STAT3 phosphorylation at 0.2 to 5 uM preincubated for 2 hrs followed by EGF stimulation measured after 10 mins by Western blot analysis", "type": "cell-based"}, "A549 [12]": {"system": "A549", "assay": "Induction of apoptosis in human A549 cells assessed as viable cells at 1 uM after 48 hrs by Annexin V-FITC/propidium iodide satining based FACS analysis (reference value: 95.87%)", "type": "functional", "details": "A549, 48 h, read-out: Activity"}, "A549 [13]": {"system": "A549", "assay": "Induction of apoptosis in human A549 cells assessed as late apoptotic cells at 3 uM after 48 hrs by Annexin V-FITC/propidium iodide satining based FACS analysis (reference value: 1.21%)", "type": "functional"}, "A549 [14]": {"system": "A549", "assay": "Cell cycle arrest in human A549 cells after 48 hrs by propidium iodide satining based FACS analysis", "type": "functional"}, "A549 [15]": {"system": "A549", "assay": "Cell cycle arrest in human A549 cells assessed as accumulation at G2/M phase at 0.5 uM after 48 hrs by propidium iodide satining based FACS analysis (reference value: 16.09%)", "type": "functional"}, "A549 [16]": {"system": "A549", "assay": "Cell cycle arrest in human A549 cells assessed as accumulation at S phase at 2 uM after 48 hrs by propidium iodide satining based FACS analysis (reference value: 34.45%)", "type": "functional"}, "A549 [17]": {"system": "A549", "assay": "Induction of apoptosis in human A549 cells assessed as early apoptotic cells at 3 uM after 48 hrs by Annexin V-FITC/propidium iodide satining based FACS analysis (reference value: 2.78%)", "type": "functional"}, "A549 [18]": {"system": "A549", "assay": "Induction of apoptosis in human A549 cells assessed as early apoptotic cells at 4 uM after 48 hrs by Annexin V-FITC/propidium iodide satining based FACS analysis (reference value: 2.78%)", "type": "functional"}, "A549 [19]": {"system": "A549", "assay": "Antiproliferative activity against human A549 cells harboring wild type EGFR/K-ras mutant after 72 hrs by MTT assay", "type": "functional, cell-based", "details": "A549, 72 h"}, "A549 [20]": {"system": "A549", "assay": "Induction of apoptosis in human A549 cells assessed as late apoptotic cells at 2 uM after 48 hrs by Annexin V-FITC/propidium iodide satining based FACS analysis (reference value: 1.21%)", "type": "functional"}, "[21]": {"system": "Epidermal growth factor receptor (Homo sapiens), P00533 [L858R,T790M]", "assay": "Inhibition of EGF-induced EGFR L858R/T790M double mutant activation in human NCI-H1975 cells assessed as reduction in ERK1/2 phosphorylation at T202/Y204 residues at 5 uM preincubated for 2 hrs followed by EGF stimulation measured after 10 mins by Western blot analysis", "type": "cell-based"}, "A549 [22]": {"system": "A549", "assay": "Induction of apoptosis in human A549 cells assessed as viable cells at 4 uM after 48 hrs by Annexin V-FITC/propidium iodide satining based FACS analysis (reference value: 95.87%)", "type": "functional", "details": "A549, 48 h, read-out: Activity"}, "[23]": {"biological_target": "T1, Epidermal growth factor receptor", "assay": "Inhibition of EGF-induced EGFR phosphorylation at Y992 residue in human A549 cells at 0.2 uM preincubated for 2 hrs followed by EGF stimulation measured after 10 mins by Western blot analysis", "type": "cell-based"}, "[24]": {"biological_target": "T1, Epidermal growth factor receptor", "details": "A549, at 5 µM", "description": "Inhibition of EGF-induced EGFR phosphorylation at Y1086 residue in human A549 cells at 5 uM preincubated for 2 hrs followed by EGF stimulation measured after 10 mins by Western blot analysis"}, "[25]": {"biological_target": "Epidermal growth factor receptor (Homo sapiens, UniProt P00533, L858R/T790M)", "sequence (P00533 25-1210 T790M/L858R limits assumed)": "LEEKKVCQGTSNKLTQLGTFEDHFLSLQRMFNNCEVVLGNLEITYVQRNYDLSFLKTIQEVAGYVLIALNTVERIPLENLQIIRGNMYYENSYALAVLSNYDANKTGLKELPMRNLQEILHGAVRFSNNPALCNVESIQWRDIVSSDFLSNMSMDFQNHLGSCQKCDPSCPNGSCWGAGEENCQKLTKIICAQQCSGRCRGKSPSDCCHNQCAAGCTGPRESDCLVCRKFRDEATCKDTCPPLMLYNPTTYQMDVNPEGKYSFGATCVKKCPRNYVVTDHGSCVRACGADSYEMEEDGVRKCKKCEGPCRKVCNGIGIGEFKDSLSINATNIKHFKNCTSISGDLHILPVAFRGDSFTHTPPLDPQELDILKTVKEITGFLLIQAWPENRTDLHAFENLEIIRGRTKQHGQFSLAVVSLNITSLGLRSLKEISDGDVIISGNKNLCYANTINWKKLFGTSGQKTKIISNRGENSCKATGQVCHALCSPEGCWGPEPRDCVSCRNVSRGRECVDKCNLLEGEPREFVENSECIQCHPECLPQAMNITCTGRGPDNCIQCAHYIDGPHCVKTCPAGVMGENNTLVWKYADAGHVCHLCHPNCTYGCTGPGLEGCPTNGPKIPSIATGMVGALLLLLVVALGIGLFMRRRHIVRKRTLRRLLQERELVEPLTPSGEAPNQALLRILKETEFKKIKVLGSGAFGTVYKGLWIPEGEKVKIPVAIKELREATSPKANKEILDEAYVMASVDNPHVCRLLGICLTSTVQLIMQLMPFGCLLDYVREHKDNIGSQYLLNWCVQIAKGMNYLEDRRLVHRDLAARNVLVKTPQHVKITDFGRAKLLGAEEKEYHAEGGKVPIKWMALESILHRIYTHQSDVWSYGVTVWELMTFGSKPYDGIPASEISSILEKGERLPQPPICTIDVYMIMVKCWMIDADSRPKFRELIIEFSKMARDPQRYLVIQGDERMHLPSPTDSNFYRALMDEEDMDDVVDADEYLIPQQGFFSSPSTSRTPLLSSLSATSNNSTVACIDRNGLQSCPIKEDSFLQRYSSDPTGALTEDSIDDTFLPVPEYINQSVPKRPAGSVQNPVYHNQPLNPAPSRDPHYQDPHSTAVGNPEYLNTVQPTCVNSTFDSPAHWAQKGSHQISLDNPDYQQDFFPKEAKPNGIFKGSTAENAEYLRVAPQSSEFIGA", "assay": "Inhibition of EGFR L858R/T790M double mutant (unknown origin) using ULight-poly GT as substrate preincubated for 30 mins followed by substrate addition measured after 1 hr by spectrophotometric method"}, "[26]": {"biological_target": "T1, Epidermal growth factor receptor", "details": "A549, at 5 µM", "remark": "listed apart in the source", "description": "Inhibition of EGF-induced EGFR phosphorylation at Tyrosine residue in human A549 cells at 5 uM preincubated for 2 hrs followed by EGF stimulation measured after 10 mins by Western blot analysis"}}, "note": "Calls of active or inactive are those of the source. The rule behind the calls is not given here.", "data": [{"smiles": "Fc1cccc(COc2ccc(Nc3ncnc4cc(OCCCN5CCOCC5)c(OCCCN5CCOCC5)cc34)cc2Cl)c1", "values": [{"measurement": "Activity", "setting": "A549 [1]", "result": 33.8, "unit": "%"}, {"measurement": "Activity", "setting": "A549 [2]", "result": 58.45, "unit": "%"}, {"measurement": "inhibition", "setting": "[3]", "result": "Dose-dependent effect"}, {"measurement": "inhibition", "setting": "[4]", "result": "Active"}, {"measurement": "Activity", "setting": "A549 [5]", "result": 10.56, "unit": "%"}, {"measurement": "Activity", "setting": "A549 [6]", "result": 3.43, "unit": "%"}, {"measurement": "inhibition", "setting": "[7]", "result": "Active"}, {"measurement": "Activity", "setting": "A549 [8]", "result": 8.8, "unit": "%"}, {"measurement": "Activity", "setting": "A549 [9]", "result": "Non-Toxic"}, {"measurement": "IC50", "setting": "[10]", "result": 0.007, "unit": "µM"}, {"measurement": "inhibition", "setting": "[11]", "result": "inactive"}, {"measurement": "viability at 1 µM", "setting": "A549 [12]", "result": 92.3, "unit": "%"}, {"measurement": "Activity", "setting": "A549 [13]", "result": 8.5, "unit": "%"}, {"measurement": "Activity", "setting": "A549 [14]", "result": "Dose-dependent effect"}, {"measurement": "Activity", "setting": "A549 [15]", "result": 14.96, "unit": "%"}, {"measurement": "Activity", "setting": "A549 [16]", "result": 30.54, "unit": "%"}, {"measurement": "Activity", "setting": "A549 [17]", "result": 8.52, "unit": "%"}, {"measurement": "Activity", "setting": "A549 [18]", "result": 14.81, "unit": "%"}, {"measurement": "IC50", "setting": "A549 [19]", "result": 1.65, "unit": "µM"}, {"measurement": "Activity", "setting": "A549 [20]", "result": 7.37, "unit": "%"}, {"measurement": "inhibition", "setting": "[21]", "result": "Active"}, {"measurement": "viability at 4 µM", "setting": "A549 [22]", "result": 48.4, "unit": "%"}, {"measurement": "inhibition", "setting": "[23]", "result": "Active"}, {"measurement": "inhibition", "setting": "[24]", "result": "Active"}, {"measurement": "IC50", "setting": "[25]", "result": "> 2", "unit": "µM"}, {"measurement": "inhibition", "setting": "[26]", "result": "Active"}]}]}
